Data reported in patent US20210007356A1, “IMIDE DERIVATIVE AND FUNGICIDE CONTAINING SAID DERIVATIVE AS ACTIVE INGREDIENT” (HOKKO CHEMICAL INDUSTRY CO., LTD., priority 2018, published 2021).
Where two headings read alike, the source gives them in different places.

How the values were obtained:
[1] = system: barley powdery mildew fungus (Erysiphe graminis); test: Test Example 2: control effect against barley powdery mildew by foliage application; assay type: in vivo; conditions: wettable powder diluted to 100 ppm, 10 mL per pot foliage spray on barley; inoculated day after; 7 days after inoculation
[2] = system: rice blast fungus (Pyricularia grisea); assay type: in vivo; conditions: flowable 5,000 ppm, 50 mL irrigation of nursery box, paddy rice; inoculated after 3 weeks; 7 days after inoculation
[3] = system: rice blast fungus (Pyricularia grisea); assay type: in vivo; conditions: 5 g of granule on nursery box, paddy rice; inoculated after 3 weeks; 7 days after inoculation
[4] = system: rice blast fungus (Pyricularia grisea); assay type: in vivo; conditions: flowable 1,000 ppm, 1 mL dripped in paddy water, inoculated after 1 week, 7 days after inoculation
[5] = system: rice sheath blight fungus (Thanatephorus cucumeris); test: Test Example 8: control effect against rice sheath blight by box treatment (granule); conditions: 5 g of granule on nursery box, paddy rice; inoculated after 3 weeks; 7 days after inoculation
From the text: (§1) Control value (%)=[1−(lesion height in sprayed plot/lesion height in unsprayed plot)]×100 (d)
From the top of a nursery box, 5 g of a granule prepared according to Formulation Example-4 was applied to a 2.5-leaf-stage paddy rice (variety: Asahi) seedling raised using a nursery box ( 1/10 the area of standard nursery box in size: 12 cm×15 cm×height 4 cm) within a greenhouse. The formulation-treated paddy rice seedling was immediately transplanted at 5 seedlings/pot into a pot ( 1/10000 are in size) filled with paddy soil (flooded). After growing for 3 weeks within a greenhouse, a culture of rice sheath blight fungus (Thanatephorus cucumeris) grown in advance on a rice straw medium was inoculated into the root of the formulation-treated paddy rice, and disease development was promoted in an artificial weather chamber at 26° C. (relative humidity=100%). Seven days after the inoculation, the rice sheath blight lesion height (height from the root) was examined, and the control value (%) was calculated according to formula (d). […] This test was performed with three replications, each consisting of one plot and one pot, per one formulation plot, and its average evaluation value of control effect was determined.

[6] = system: rice sheath blight fungus (Thanatephorus cucumeris); test: Test Example 6: control effect against rice sheath blight by box treatment (flowable formulation); conditions: flowable 5,000 ppm, 50 mL irrigation of nursery box, paddy rice; inoculated after 3 weeks; 7 days after inoculation
Method: as §1
By irrigation, 50 mL of a diluted solution (5,000 ppm) of a flowable prepared according to Formulation Example-3 was applied to a 2.5-leaf-stage paddy rice (variety: Asahi) seedling raised using a nursery box ( 1/10 the area of standard nursery box in size: 12 cm×15 cm×height 4 cm) within a greenhouse. The formulation-treated paddy rice seedling was immediately transplanted at 5 seedlings/pot into a pot ( 1/10000 are in size) filled with paddy soil (flooded). After growing for 3 weeks within a greenhouse, a culture of rice sheath blight fungus (Thanatephorus cucumeris) grown in advance on a rice straw medium was inoculated into the root of the formulation-treated paddy rice, and disease development was promoted in an artificial weather chamber at 26° C. (relative humidity=100%). Seven days after the inoculation, the rice sheath blight lesion height (height from the root) was examined, and the control value (%) was calculated according to formula (d). […] This test was performed with three replications, each consisting of one plot and one pot, per one formulation plot, and its average evaluation value of control effect was determined.

[7] = system: rice sheath blight fungus (Thanatephorus cucumeris); test: Test Example 10: control effect against rice sheath blight by water surface application (flowable formulation); conditions: flowable 1,000 ppm, 1 mL dripped in paddy water, inoculated after 1 week, 7 days after inoculation

Structure (SMILES)	evaluation value of control effect (from control value, lesion area percentage) [1]	evaluation value of control effect (from control value, number of lesions) [2]	evaluation value of control effect (from control value, number of lesions) [3]	evaluation value of control effect (from control value, number of lesions) [4]	evaluation value of control effect (from control value, lesion height) [5]	evaluation value of control effect (from control value, lesion height) [6]	evaluation value of control effect (from control value, lesion height) [7]
CC(C)CCc1ccccc1N(C(=O)c1cn(C)nc1C(F)F)C(=O)c1snc(Cl)c1Cl [1-34]	4	5	5	5	5	5	5
Cc1cc(C(=O)N(C(=O)c2cn(C)nc2C(F)F)c2ccccc2C(C)CC(C)C)sn1 (centres unmarked) [1-136]	4	5	5	5	5	5	5
Cc1nnsc1C(=O)N(C(=O)c1cn(C)nc1C(F)F)c1ccccc1CCC(C)C [1-145]	5	5	5	5	5	5	5
Cc1nn(C)c(F)c1C(=O)N(C(=O)c1snnc1C(F)F)c1ccccc1C(C)CC(C)C (centres unmarked) [1-258]	4	5	5	5	5	5	5
Cc1nc(C(F)F)c(C(=O)N(C(=O)c2cn(C)nc2C(F)F)c2ccccc2C(C)CC(C)C)s1 (centres unmarked) [1-314]	4	5	5	5	5	5	5
CC(C)CC(C)c1ccccc1N(C(=O)c1cn(C)nc1C(F)F)C(=O)c1scnc1C(F)(F)F (centres unmarked) [1-333]	4	5	5	5	5	5	5
CC(C)CC(C)c1ccccc1N(C(=O)c1cn(C)nc1C(F)F)C(=O)c1scnc1C(F)F (centres unmarked) [1-341]	4	5	5	5	5	5	5
CC(C)CC(C)c1ccccc1N(C(=O)c1cc(Cl)c(Cl)s1)C(=O)c1cn(C)nc1C(F)F (centres unmarked) [1-359]	4	5	5	5	5	5	5
Cn1cc(C(=O)N(C(=O)c2cc(Cl)nc(Cl)c2)c2ccccc2-c2cc(F)c(F)c(F)c2)c(C(F)F)n1 [1-375]	4	5	5	5	5	5	5
CC(C)CC(C)c1ccccc1N(C(=O)c1cc(F)nc(F)c1)C(=O)c1cn(C)nc1C(F)F (centres unmarked) [1-380]	5	5	5	5	5	5	5
Cc1nc(C(F)F)c(C(=O)N(C(=O)c2snc(Cl)c2Cl)c2ccccc2CCC(C)C)s1 [7-37]	4	5	5	5	5	5	5
Cc1nc(C(F)F)c(C(=O)N(C(=O)c2snc(Cl)c2Cl)c2ccccc2C(C)CC(C)C)s1 (centres unmarked) [7-38, N-(3,4-Dichloroisothiazole-5-carbonyl)-4-(difluoromethyl)-N-{2-(1,3-dimethylbutyl)phenyl}-2-methyl-thiazole-5-carboxamide]	5	5	5	5	5	5	5
Cc1nc(C(F)F)c(C(=O)N(C(=O)c2snnc2C)c2ccccc2CCC(C)C)s1 [7-151]	4	5	5	5	5	5	5
Cc1nc(C(F)F)c(C(=O)N(C(=O)c2snnc2C)c2ccccc2C(C)CC(C)C)s1 (centres unmarked) [7-152]	5	5	5	5	5	5	5
CCc1nc(C(F)F)c(C(=O)N(C(=O)c2sc(C)nc2C(F)F)c2cccc3c2C(C)OC3(C)C)s1 (centres unmarked) [26-70]	–	5	5	5	5	5	5
Cc1nc(C(F)F)c(C(=O)N(C(=O)c2cc(Cl)c(Cl)s2)c2cccc3c2C(C)OC3(C)C)s1 (centres unmarked) [26-90]	–	5	5	5	5	5	5
Cc1nc(C(F)F)c(C(=O)N(C(=O)c2onc(Cl)c2Cl)c2cccc3c2C(C)OC3(C)C)s1 (centres unmarked) [26-92]	–	5	5	5	5	5	5
CC1OC(C)(C)c2cccc(N(C(=O)c3cccnc3C(F)F)C(=O)c3cccc4nnsc34)c21 (centres unmarked) [27-28]	–	5	5	5	5	5	5
Cc1nc(C(F)F)c(C(=O)N(C(=O)c2cccnc2C(F)F)c2cccc3c2C(C)OC3(C)C)s1 (centres unmarked) [27-36]	–	5	5	5	5	5	5
